The text below walks through data of US20090186900A1, “COMPOUND” (priority 2006, published 2009).

One data set deals with T1, DHA-STS (Rattus norvegicus, UniProt P15589).
T1 construct: from tissue; host or cells: rat liver
T1 sequence (P15589 20-577): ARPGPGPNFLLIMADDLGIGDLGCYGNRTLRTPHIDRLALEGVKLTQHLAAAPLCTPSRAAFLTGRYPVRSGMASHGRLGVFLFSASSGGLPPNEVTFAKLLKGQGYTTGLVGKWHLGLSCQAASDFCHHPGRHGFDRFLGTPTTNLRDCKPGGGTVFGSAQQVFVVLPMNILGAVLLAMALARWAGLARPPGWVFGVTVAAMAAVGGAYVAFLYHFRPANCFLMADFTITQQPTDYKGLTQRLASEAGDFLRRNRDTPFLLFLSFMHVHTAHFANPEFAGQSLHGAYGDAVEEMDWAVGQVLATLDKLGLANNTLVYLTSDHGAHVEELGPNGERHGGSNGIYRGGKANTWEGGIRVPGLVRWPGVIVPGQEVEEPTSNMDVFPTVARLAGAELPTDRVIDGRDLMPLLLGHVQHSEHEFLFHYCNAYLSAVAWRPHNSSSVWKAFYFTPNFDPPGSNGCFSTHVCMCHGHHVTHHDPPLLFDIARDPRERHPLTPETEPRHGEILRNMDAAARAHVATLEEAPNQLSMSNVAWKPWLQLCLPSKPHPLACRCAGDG
The settings on record: administered either orally or subcutaneously; cited from earlier work.

The next data set addresses T2, E1-STS (Homo sapiens, UniProt P08842).
T2 construct: endogenous in cells; host or cells: MCF-7 human breast cancer cells
T2 sequence (P08842 22-583): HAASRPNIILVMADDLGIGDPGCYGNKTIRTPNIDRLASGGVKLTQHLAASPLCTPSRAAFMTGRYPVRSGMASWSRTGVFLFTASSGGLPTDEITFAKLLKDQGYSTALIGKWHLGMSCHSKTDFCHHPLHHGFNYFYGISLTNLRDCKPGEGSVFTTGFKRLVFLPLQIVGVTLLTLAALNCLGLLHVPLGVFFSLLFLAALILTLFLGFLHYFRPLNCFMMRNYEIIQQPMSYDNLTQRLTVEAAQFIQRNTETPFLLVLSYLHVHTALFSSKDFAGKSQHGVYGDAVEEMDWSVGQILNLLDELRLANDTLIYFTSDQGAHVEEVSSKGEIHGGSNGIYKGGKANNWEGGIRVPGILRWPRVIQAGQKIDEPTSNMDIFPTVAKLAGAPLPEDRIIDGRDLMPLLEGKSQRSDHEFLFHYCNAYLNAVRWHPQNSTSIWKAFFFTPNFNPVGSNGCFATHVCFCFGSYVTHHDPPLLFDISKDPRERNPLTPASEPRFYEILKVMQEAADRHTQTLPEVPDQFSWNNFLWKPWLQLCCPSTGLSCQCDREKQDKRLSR
The settings on record: intact MCF-7 cells, at 0.1 mM; cited from earlier work.

The next data set concerns rats. The settings on record: cited from earlier work.
A further data set addresses T3, rat liver E1-STS (Rattus norvegicus, UniProt P15589).
T3 construct: from tissue; host or cells: rat liver
T3 sequence (P15589 20-577): T1 sequence (P15589 20-577)
The settings on record: administered either orally or subcutaneously; cited from earlier work.

Structures are written as SMILES.

With `CCc1cc(-c2ccc(C(C)=O)cc2)ccc1OC` [Compound 38, 1-(3′-Ethyl-4′-methoxy-biphenyl-4-yl)-ethanone], the melting point – broadly, the temperature, or range, at which the solid turns liquid – lay within 69 to 72 °C.
In turn, `CCc1cc(Oc2ccc(C(C)=O)cc2)ccc1OC` [Compound 140, 1-(4-(3-Ethyl-4-methoxyphenoxy)phenyl)ethanone] came in with a melting point of 53 to 56 °C.
On the same count and under the same terms, the result for `CCc1cc(-c2ccc(-c3ccn(C)n3)cc2)ccc1OC` [Compound 45, 3-(3′-Ethyl-4′-methoxy-biphenyl-4-yl)-1-methyl-1H-pyrazole] reads 167 to 170 °C.
On the same count and under the same terms, the result for `CCc1cc(-c2ccc(-c3cc[nH]n3)cc2)ccc1OC` [Compound 44, 3-(3′-Ethyl-4′-methoxy-biphenyl-4-yl)-1H-pyrazole] reads 164 to 168 °C.
Still for that read-out and setting: the result for `CCc1cc(-c2ccc(-c3ccn(CC(=O)OC)n3)cc2)ccc1OC` [Compound 48, [3-(3′-Ethyl-4′-methoxy-biphenyl-4-yl)-pyrazol-1-yl]-acetic Acid Methyl Ester] reads 116 to 120 °C; that for `CC(=O)c1ccc(Oc2cccnc2)cc1` [Compound 135, 1-(4-(Pyridin-3-yloxy)phenyl)ethanone], 45 to 50 °C.
As to `CCc1cc(-c2ccc(-c3cc(CCC(=O)NCc4cccnc4)[nH]n3)cc2)ccc1O` [Compound 66, 3-[5-(3′-Ethyl-4′-hydroxy-biphenyl-4-yl)-2H-pyrazol-3-yl]-N-pyridin-3-ylmethyl-propionamide], the melting point lay in the range of 210 to 214 °C.
On the same count and under the same terms, then `O=C(CCC(=O)c1ccc(Oc2ccc(O)cc2)cc1)NCc1cccnc1` [Compound 118, 4-(4-(4-Hydroxyphenoxy)phenyl)-4-oxo-N-((pyridin-3-yl)methyl)butanamide], with > 191 °C (dec.); and `CCc1cc(-c2ccc(C(=O)CCC(=O)NCCO)cc2)ccc1O` [Compound 37, 4-(3′-Ethyl-4′-hydroxy-biphenyl)-4-oxo-N-(2-hydroxyethyl)-butyramide], with > 110 °C (dec.).
On the same count and under the same terms, the result for `CC(=O)c1ccc(Oc2ccc(O)cc2)cc1` [Compound 129, 1-(4-(4-Hydroxyphenoxy)phenyl)ethanone] reads 159 to 161 °C.
Same read-out and setting: then `CCc1cc(-c2ccc(-c3ccnn3C)cc2)ccc1OC` [Compound 46, 5-(3′-Ethyl-4′-methoxy-biphenyl-4-yl)-1-methyl-1H-pyrazole], with 97 to 100 °C.
As to `C[C@]12CC[C@@H]3c4ccc(OS(N)(=O)=O)cc4CC[C@H]3[C@@H]1CCC2=O` [EMATE, oestrone-3-sulphamate], the “inhibition of rat liver DHA-STS activity” value at DHA-STS is 99%. Besides, the “inhibition of E1-STS activity” value at E1-STS was “more than 99%”. Besides, the “oral uterotrophic activity relative to oestradiol” value with rats is reported as 100 times. The “inhibition of rat liver E1-STS activity” value on rat liver E1-STS is 99%.
